Experimental data: patent US20090306003A1, “Pesticide Delivery System” (priority 2006, published 2009)

Test: logP by chromatography, internally standardized with toluene and triphenylene
Assay type: physicochemical
Conditions: pH = 7
Procedure: Microblends of herbicides were prepared using melts of mixtures of nonionic block copolymer and ethoxylated surfactants. Specifically, tristyrylphenol etoxylate (Soprophor BSU, Rhodia) was used in combination with Pluronic P123 (PEO20-PPO69-PEO20), The list of the herbicides and corresponding log P values (the log P values were measured according procedure described by Donovan and Pescatore, J. Chromatography A 2002, 952, 47-61) are presented in Table 24. All log P values were measured at pH 7, except for clethodim, measured at pH 2. First, a stock blend of Pluronic P123 and Soprophor BSU was prepared by melting together 50 g of Pluronic P123 with 50 g of Soprophor BSU at 70° C. to form a clear, homogeneous melt. Composition of the copolymer/surfactant mixture was P123:Soprophor=1:1 by weight. […] The mixtures were heated at 70° C. for 10 min and shaken.

Compound	logP Average
COP(=S)(OC)Oc1c(Cl)cc(C)cc1Cl [Tolclofos-methyl]	4.418
Trisulfuron-methyl	0.510
